# Reference: patent publication JP2021024822A, “安定化されたトリメブチンマレイン酸塩含有固形製剤” (Kyoto Pharmaceutical Industries Ltd, priority 2019, dated 2021)
# Assay: Related substance A content of the trimebutine maleate drug substance used
# Assay type: physicochemical
# Conditions: drug substance used in this study
smiles,measurement,value
CCC(COC(=O)c1cc(OC)c(OC)c(OC)c1)(c1ccccc1)N(C)C (stereo not shown) [トリメブチンマレイン酸塩],content of related substance A in the trimebutine maleate drug substance,0.06%
